Results: US12497405B2, “Bicyclic heterocycle compounds methods of use thereof for the treatment of herpes viruses” (Merck Sharp & Dohme LLC, priority 2019, dated 2025)
pEC50, pIC50: −log10 of the molar value. Like-named read-outs stand apart in the source and are kept apart here.

Columns and labels:
[1] = molecular target: varicella zoster virus DNA polymerase (Varicella-zoster virus (strain Dumas) (HHV-3) (Human herpesvirus 3), UniProt P09252); experiment: VZV polymerase assay (AlphaLISA); format: biochemical; conditions: VZV polymerase 0.4 nM, 30 min pre-incubation, 60 minute at 37° C.
Protocol: (§1) Human cytomegalovirus and varicella zoster virus DNA polymerases were expressed via baculovirus vector in SF21 cells and purified. Heterodimeric nucleic acid substrate used in the herpesvirus polymerase reactions were generated by annealing a 59-mer template to a 17-mer digoxigenin-labeled primer. Polymerase (HCMV final concentration of 0.2 nM; VZV final concentration of 0.4 nM) was combined with an inhibitor compound or DMSO in assay buffer (10 mM HEPES, pH 7.5, 25 mM KCl, 25 mM NaCl, 5 mM MgCl2, 5% glycerol, 0.67 mg/ml bovine serum albumin, and 1 mM tris(2-carboxyethyl)phosphine)), and this mixture was pre-incubated for 30 minutes at room temperature in 384-well microtiter plates. The polymerization reaction was initiated by the addition of template/primer substrate (final concentration: 1.6 nM), and dNTPs (final concentration: 24 nM dCTP, 24 nMdGTP, 16 nM dATP, 16 nM dTTP, and 0.8 nM biotin-dUTP). After a 60 minute incubation period at 37° C., the reactions were terminated using quench buffer (25 mM HEPES pH 7.5, 100 mM NaCl, 0.25% Tween-20, 12 mM EDTA, and 1 mg/ml bovine serum albumin). Incorporation of biotinylated UTP was detected with 2.5-5 μg/mL anti-DIG AlphaLISA acceptor beads and 5-10 μg/mL streptavidin AlphaLISA donor beads (PerkinElmer). Compound effects were normalized to the window defined by the controls (DMSO only and pre-quenched wells), and were fit using a 4-parameter algorithm to report an IC50.

[2] = molecular target: Human cytomegalovirus DNA polymerase (Human cytomegalovirus (strain AD169) (HHV-5) (Human herpesvirus 5), UniProt P08546); experiment: CMV polymerase assay (AlphaLISA); format: biochemical; conditions: HCMV polymerase 0.2 nM, 30 min pre-incubation, 60 minute at 37° C.
Protocol: as §1

[3] = system: CMV; experiment: Viral qPCR assay, CMV; format: cell-based; conditions: infected cells, viral genome copies by qPCR normalized to PPIA, read-out: CMV Cell EC50
Protocol: (§2) MRC5 cells, Vero cells, and MeWo cells were obtained from ATCC, and were maintained at 37° C./5% CO2/90% relative humidity in Minimal Essential Medium with 10% fetal bovine serum, […] L-glutamine, 100 units/ml penicillin and 100 ug/ml streptomycin. Assay plates were prepared by dispensing compounds dissolved in DMSO into wells of 384 well collagen-coated plates using an ECHO acoustic dispenser. Each test compound was tested in a 10-point, serial 3-fold dilution. Controls included uninfected cells and infected cells treated only with DMSO. Assays were initiated by mixing selected cells, in suspension, with virus, and dispensing 50 μl/well infected cells to pre-plated compounds. Plates were incubated at 37° C./5% CO2/90% relative humidity for ˜72 hrs to permit genomic replication, and infected cells were lysed by the addition of an equal volume of lysis buffer (10 mM Tris-HCl, pH8, 50 mM KCl, 2 mM MgCl2, 0.45% NP-40, 0.45% Tween-20, and 100 µg/ml proteinase K). An aliquot of the lysate was then transferred to a 384-well PCR plate and incubated at 56° C. for 1 hour, and then at 95° C. for 10 minutes. Levels of the selected viral gene and of the cellular control, PPIA, were measured in separate 10 μl qPCR assays using TaqMan® Gene Expression Master Mix (Applied Biosystems), and an 7900HT Fast Real-Time PCR System with 384-Well Block Module. 7-point, serial 10-fold dilutions of a plasmid standard were run on each plate to generate a standard curve, and genome copies numbers were calculated by plotting experimental Ct onto linear regression of the standard curve. Viral genome copy numbers were normalized by cellular control copy number, and compound effects were normalized to the window defined by the controls. Calculated % effects were fit using a 4-parameter algorithm, and EC50 was reported.

[4] = system: HSV1; experiment: Viral qPCR assay, HSV1; format: cell-based; conditions: infected cells, viral genome copies by qPCR normalized to PPIA, read-out: HSV1 Cell EC50
Protocol: as §2

[5] = system: HSV2; experiment: Viral qPCR assay, HSV2; format: cell-based; conditions: infected cells, viral genome copies by qPCR normalized to PPIA, read-out: HSV2 Cell EC50
Protocol: as §2

Structure (SMILES) | pIC50 [1] | pIC50 [2] | pEC50 ([3]; Human betaherpesvirus 5, 72 h) | pEC50 ([4]; Human alphaherpesvirus 1, 72 h) | pEC50 ([5]; Human alphaherpesvirus 2, 72 h) | pEC50 ([3]; ~72 hrs) | pEC50 ([4]; ~72 hrs) | pEC50 ([5]; ~72 hrs)
C[C@@H]1CN(C2CCOCC2)CCN1c1ccc2ncn(Cc3ccc(Cl)cc3)c(=O)c2c1 [Example 43] | 5.30 | 5.01 | – | – | – | – | – | –
Cc1nc2c(CC(C)(C)O)cc(O[C@H]3CCN4C(=O)OC[C@@H]4C3)cc2c(=O)n1Cc1ccc(Cl)cc1 [Example 67] | 7.28 | 7.66 | – | – | – | – | – | –
Cc1nc2cc(C#N)c(N3CCN(C)C[C@H]3C)cc2c(=O)n1Cc1ccc(C#N)cc1F [Example 63] | – | 6.63 | 6.30 | 5.50 | 5.43 | – | – | –
CC(c1ccc(Cl)cc1)n1ccc2ncc(O[C@H]3CCN4C(=O)OC[C@@H]4C3)cc2c1=O (single isomer, unassigned) [Example 30] | 6.80 | 6.68 | – | – | – | – | – | –
COc1ccc(-c2cc3ncn(Cc4ccc(Cl)cc4)c(=O)c3cc2O[C@H]2CCN3C(=O)OC[C@@H]3C2)cn1 [Example 57] | 7.37 | 7.37 | – | – | – | – | – | –
C[C@@H]1CN(C)CCN1c1cc2c(=O)n(Cc3ccc(Cl)cc3)cnc2cc1-c1cnn(C(F)F)c1 [Example 50] | 6.37 | 6.26 | – | – | – | – | – | –
COc1ncc(-c2cc3nc(C)n(Cc4ccc(Cl)cc4)c(=O)c3cc2O[C@H]2CCN3C(=O)OC[C@@H]3C2)cn1 [Example 5] | – | 7.82 | – | – | – | 6.97 | 6.88 | 7.07
CC(=O)N1CC[C@@H](Oc2cnc3ccn(Cc4ccc(Cl)cc4)c(=O)c3c2)C[C@H]1C (single isomer, unassigned) [Example 35] | 7.09 | 7.18 | – | – | – | – | – | –
CN1CCN(c2ccc3ccn(Cc4ccc(Cl)cc4)c(=O)c3c2)CC1 [Example 21] | 5.14 | 5.23 | – | – | – | – | – | –
O=C1OC[C@@H]2C[C@@H](Oc3cc4c(=O)n(Cc5ccc(Cl)cc5)c(O)nc4cc3-c3cnn(C(F)F)c3)CCN12 [Example 150] | – | – | 7.10 | 7.28 | 7.06 | – | – | –
Cc1nc2cc(-c3cnc(C(C)(C)O)nc3)c(O[C@H]3CCN4C(=O)OC[C@@H]4C3)cc2c(=O)n1Cc1ccc(Cl)cc1 [Example 154] | – | – | 6.74 | 6.39 | 6.31 | – | – | –
C[C@@H]1CN(C)CCN1c1cc(CC(C)(C)O)c2ncn(Cc3ccc(Cl)cc3)c(=O)c2c1 [Example 55] | 6.86 | 6.96 | – | – | – | – | – | –
Cc1nc2cc(-c3ccncn3)c(O[C@H]3CCN4C(=O)OC[C@@H]4C3)cc2c(=O)n1Cc1ccc(Cl)cc1 [Example 130] | – | – | 6.72 | 6.78 | 6.54 | – | – | –
O=C1OC[C@@H]2C[C@@H](Oc3cc4c(=O)n(Cc5ccc(Cl)cc5)c(CN5CCC5)nc4cc3-c3cnn(C(F)F)c3)CCN12 [Example 129] | – | – | 6.94 | 6.75 | 6.87 | – | – | –
Cc1nc2cc(-c3cc4n(n3)C(C(F)(F)F)CN(C)C4)c(O[C@H]3CCN4C(=O)OC[C@@H]4C3)cc2c(=O)n1Cc1ccc(Cl)cc1 (single isomer, unassigned) [Example 151] | – | – | 6.75 | 6.63 | 6.75 | – | – | –
COc1cnc(-c2cc3nc(C)n(Cc4ccc(Cl)cc4)c(=O)c3cc2O[C@H]2CCN3C(=O)OC[C@@H]3C2)cn1 [Example 113] | – | – | 5.53 | 5.57 | 5.77 | – | – | –
O=C1OC[C@@H]2C[C@@H](Oc3ccc4c(CO)cn(Cc5ccc(Cl)cc5)c(=O)c4c3)CCN12 [Example 29] | 7.89 | 7.68 | 6.62 | 6.59 | – | – | – | –

Structure (SMILES) | pIC50 [1] | pIC50 [2] | pEC50 ([3]; Human betaherpesvirus 5, 72 h) | pEC50 ([4]; Human alphaherpesvirus 1, 72 h) | pEC50 ([5]; Human alphaherpesvirus 2, 72 h) | pEC50 ([3]; ~72 hrs) | pEC50 ([4]; ~72 hrs) | pEC50 ([5]; ~72 hrs)
COc1ncc(-c2cc3nc(C)n(Cc4ccc(Cl)cc4)c(=O)c3cc2O[C@H]2CCN3C(=O)OC[C@@H]3C2)c(C)n1 [Example 93] | – | – | 5.84 | 5.59 | 5.47 | – | – | –
Cc1nc2cc(-c3cc4cnccn4c3)c(O[C@H]3CCN4C(=O)OC[C@@H]4C3)cc2c(=O)n1Cc1ccc(Cl)cc1 [Example 99] | – | – | 6.57 | 6.93 | 7.11 | – | – | –
Cc1nc2cc(-c3cc4cncnn4c3)c(O[C@H]3CCN4C(=O)OC[C@@H]4C3)cc2c(=O)n1Cc1ccc(Cl)cc1 [Example 107] | – | – | 7.28 | 7.28 | 7.51 | – | – | –
Cc1nc2cc(-c3ncccn3)c(O[C@H]3CCN4C(=O)OC[C@@H]4C3)cc2c(=O)n1Cc1ccc(Cl)cc1 [Example 119] | – | – | 6.40 | 6.03 | 6.04 | – | – | –
Cc1nc2cc(-c3cnc4nccn4c3)c(O[C@H]3CCN4C(=O)OC[C@@H]4C3)cc2c(=O)n1Cc1ccc(Cl)cc1 [Example 96] | – | – | 5.69 | 5.54 | 5.48 | – | – | –
O=C1OC[C@@H]2C[C@@H](Oc3cc4c(=O)n(Cc5ccc(Cl)cc5)c(CNCC(F)(F)F)nc4cc3-c3cnn(C(F)F)c3)CCN12 [Example 133] | – | – | 6.78 | 6.62 | 6.97 | – | – | –
N#Cc1nc2cc(-c3cnn(C(F)F)c3)c(O[C@H]3CCN4C(=O)OC[C@@H]4C3)cc2c(=O)n1Cc1ccc(Cl)cc1 [Example 106] | – | – | 6.84 | 6.99 | 7.14 | – | – | –
O=C1OC[C@@H]2C[C@@H](Oc3cc4c(=O)n(Cc5ccc(Cl)cc5)c(OC5CCOCC5)nc4cc3-c3cnn(C(F)F)c3)CCN12 [Example 126] | – | – | 6.69 | 6.43 | 6.85 | – | – | –
Cc1nc2cc(-c3cnc(OC4CCOCC4)nc3)c(O[C@H]3CCN4C(=O)OC[C@@H]4C3)cc2c(=O)n1Cc1ccc(Cl)cc1 [Example 109] | – | – | 6.33 | 6.38 | 6.82 | – | – | –
Cc1nc2cc(-c3cnc(C(F)F)nc3)c(O[C@H]3CCN4C(=O)OC[C@@H]4C3)cc2c(=O)n1Cc1ccc(Cl)cc1 [Example 124] | – | – | 6.79 | 6.70 | 6.92 | – | – | –
Cc1nc2cc(-c3cn4ccnc4s3)c(O[C@H]3CCN4C(=O)OC[C@@H]4C3)cc2c(=O)n1Cc1ccc(Cl)cc1 [Example 16] | – | – | 7.48 | 7.38 | 7.74 | – | – | –
COc1ncncc1-c1cc2nc(C)n(Cc3ccc(Cl)cc3)c(=O)c2cc1O[C@H]1CCN2C(=O)OC[C@@H]2C1 [Example 94] | – | – | 5.83 | 5.62 | 5.73 | – | – | –
COc1cnnc(-c2cc3nc(C)n(Cc4ccc(Cl)cc4)c(=O)c3cc2O[C@H]2CCN3C(=O)OC[C@@H]3C2)c1 [Example 132] | – | – | 5.83 | 5.83 | 6.09 | – | – | –
O=C1OC[C@@H]2C[C@@H](Oc3cc4c(=O)n(Cc5ccc(Cl)cc5)c(OC5CCC(O)CC5)nc4cc3-c3cnn(C(F)F)c3)CCN12 (single isomer, unassigned) [Example 143] | – | – | – | – | – | 7.02 | 6.67 | 6.74
O=C1OC[C@@H]2C[C@@H](Oc3cc4c(=O)n(Cc5ccc(Cl)cc5)c(CN5CCOCC5)nc4cc3-c3cnn(C(F)F)c3)CCN12 [Example 125] | – | – | 5.37 | 5.42 | 5.89 | – | – | –
O=C1OC[C@@H]2C[C@@H](Oc3cc4c(=O)n(Cc5ccc(Cl)cc5)cnc4nc3-c3cnco3)CCN12 [Example 37] | – | – | 7.70 | 7.72 | 7.96 | – | – | –
Cc1nc2cc(-c3cn4cccnc4n3)c(O[C@H]3CCN4C(=O)OC[C@@H]4C3)cc2c(=O)n1Cc1ccc(Cl)cc1 [Example 116] | – | – | 6.90 | 6.97 | 7.21 | – | – | –
